From publication PMC8455565 (Scientific Reports, 2021)

Tests used:
TEC = target: T1, TEC (Homo sapiens, UniProt P42680); experiment: Kinase biochemical assay (FRET), TEC; conditions: read-out: inhibitory activity on TEC
T1 sequence (P42680 1-631): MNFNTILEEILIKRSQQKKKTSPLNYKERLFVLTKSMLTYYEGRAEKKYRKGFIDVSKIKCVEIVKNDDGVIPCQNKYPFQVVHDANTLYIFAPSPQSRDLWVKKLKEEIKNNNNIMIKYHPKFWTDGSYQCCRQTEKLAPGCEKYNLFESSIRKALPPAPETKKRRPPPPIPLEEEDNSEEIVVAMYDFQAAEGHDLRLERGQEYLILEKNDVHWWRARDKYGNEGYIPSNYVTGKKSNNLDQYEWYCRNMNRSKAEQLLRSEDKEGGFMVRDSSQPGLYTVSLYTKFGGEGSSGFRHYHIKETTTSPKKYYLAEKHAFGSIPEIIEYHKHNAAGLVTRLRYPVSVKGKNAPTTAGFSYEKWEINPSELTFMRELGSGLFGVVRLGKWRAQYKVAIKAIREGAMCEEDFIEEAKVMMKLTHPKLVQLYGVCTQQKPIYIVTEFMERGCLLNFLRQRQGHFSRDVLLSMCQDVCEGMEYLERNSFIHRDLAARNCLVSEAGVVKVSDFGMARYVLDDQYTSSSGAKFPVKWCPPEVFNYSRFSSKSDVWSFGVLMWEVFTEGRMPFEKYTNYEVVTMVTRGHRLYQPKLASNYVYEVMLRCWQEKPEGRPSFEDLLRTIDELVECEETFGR

B cells = experiment: B cell inhibition in whole blood; type: cell-based
CIA model rats = experiment: Histopathological assessment of arthritis in CIA rats; type: in vivo, rat; conditions: for Histological assessment (Means of the 4 indexes): mean ± SEM
Experimental: Briefly, the hind legs of each rat were fixed with 10% formalin, decalcified in 5% formic acid, embedded in paraffin, and cut for pathological staining. Arthritis, bone erosion and synovitis were determined by hematoxylin and eosin (H&E) staining, and cartilage damage was evaluated by safranin O staining. All parameters were scored on a scale of 0 to 4 based on severity according to the following criteria: 0 = no erosion, 1 = mild (focal subchondral erosion), 2 = moderate (multiple subchondral erosions), 3 = high (multiple subchondral erosions and focal erosion of the talus), and 4 = maximum (multiple erosions of the tarsal and metatarsal bones). This test was conducted by the Department of Pathology of Asan Medical Center (University of Ulsan College of Medicine, Republic of Korea).

[1] = Phase I pharmacokinetics in healthy volunteers; type: in vivo; conditions: male, human, plasma, oral; after multiple doses, all dose levels (BID)
Experimental: PK/PD data from 24 subjects who had received the drug BID among the 90 total subjects who participated in the MAD study were analyzed. Blood was collected on day 1 before drug administration and 1 h, 2 h, 4 h, and 12 h after drug administration. Blood samples were taken 3 days and 2 h after drug administration. Additional blood samples were taken on day 6 (5, 20, and 60 mg/kg), day 15 (40 mg/kg), day 17, and day 21 for PK/PD analysis.
After drug administration, whole blood was collected from CIA model rats and human subjects at the indicated times. Plasma was obtained by centrifugation at 12,000 rpm for 2 min and stored at − 20 °C until analysis.

CD8+ Memory (CD3+CD28) = experiment: High-dimensional phosphorylation analysis, CD8+ Memory (CD3+CD28); type: cell-based, human; conditions: 30 µM, 5'
Experimental: (§1) The analysis measured 94 intracellular signaling nodes (81 phosphorylation sites, 10 total protein levels and 3 methylation/acetylation sites) in stimulated immune cells, including B cells (IgM plus CD40L), CD4 + and CD8 + T cells (IL-2; CD3 plus CD28), monocytes (M-CSF), NK cells (IL-2), and granulocytes (LPS).

CD4+ Memory (CD3+CD28) = experiment: High-dimensional phosphorylation analysis, CD4+ Memory (CD3+CD28); type: cell-based, human; conditions: 30 µM, 5'
Experimental: as §1

NK cells (LPS) = experiment: High-dimensional phosphorylation analysis, NK cells (LPS); type: cell-based, human; conditions: 30 µM, 60'
Neutrophils (LPS) = experiment: High-dimensional phosphorylation analysis, Neutrophils (LPS); type: cell-based, human; conditions: 30 µM, 15'
Experimental: as §1

BTK [2] = target: T2, BTK (Homo sapiens, UniProt Q06187); experiment: BTK occupancy in whole blood ex vivo; type: cell-based; set-up: from tissue; host or cells: whole blood
T2 sequence (Q06187 whole entry): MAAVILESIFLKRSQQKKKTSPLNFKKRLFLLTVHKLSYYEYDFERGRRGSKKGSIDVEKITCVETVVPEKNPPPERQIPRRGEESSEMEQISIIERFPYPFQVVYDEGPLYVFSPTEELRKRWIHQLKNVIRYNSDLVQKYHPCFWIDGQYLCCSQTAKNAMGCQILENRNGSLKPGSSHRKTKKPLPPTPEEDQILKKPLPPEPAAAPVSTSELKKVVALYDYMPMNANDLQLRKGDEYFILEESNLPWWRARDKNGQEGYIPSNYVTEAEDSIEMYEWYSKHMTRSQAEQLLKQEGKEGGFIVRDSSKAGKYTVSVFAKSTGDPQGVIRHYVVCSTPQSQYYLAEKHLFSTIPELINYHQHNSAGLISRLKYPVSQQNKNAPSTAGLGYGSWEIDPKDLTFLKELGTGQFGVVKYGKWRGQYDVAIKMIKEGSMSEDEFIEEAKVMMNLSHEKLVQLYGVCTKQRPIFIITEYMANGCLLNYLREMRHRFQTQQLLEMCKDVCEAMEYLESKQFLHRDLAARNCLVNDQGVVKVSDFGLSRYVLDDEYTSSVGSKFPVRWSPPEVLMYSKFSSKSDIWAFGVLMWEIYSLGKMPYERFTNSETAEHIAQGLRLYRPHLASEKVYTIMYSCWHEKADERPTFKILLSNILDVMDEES

BTK [3] = target: T2, BTK; experiment: BTK kinase activity, Z'-LYTE FRET biochemical assay; set-up: purchased Thermo Fisher Scientific PV3363; conditions: mean ± S.D; read-out: IC50, hBTK biochemical assay
Experimental: The kinase activity of BTK was measured using the Z′-LYTE assay based on fluorescence resonance energy transfer (FRET). […] Briefly, BTK, peptide, ATP and inhibitor mixtures were incubated for 1 h at room temperature. Then, Development Reagent A was added to each well, and incubation proceeded for another 1 h. […] The data were analyzed by GraphPad Prism 6 (GraphPad Software, CA, USA) to determine the IC50 values.

[4] = 3 mg/kg, ankle joints, vs CIA control

Compound: C=CC(=O)Nc1cccc(Oc2nc(Nc3ccc(N4CCN(C)CC4)cc3)nc3ccoc23)c1 [Poseltinib]
- IC50 (TEC): < 10 nM
- IC50 (B cells): 420 nM
- Histological assessment (Means of the 4 indexes) (CIA model rats; 0.3 mg/kg oral once daily): 6.9 ± 0.2
- Histological assessment (Means of the 4 indexes) (CIA model rats; 1 mg/kg oral once daily): 6.3 ± 0.2
- Histological assessment (Means of the 4 indexes) (CIA model rats; 3 mg/kg oral once daily): 4.1 ± 0.2
- arthritis index reduction (CIA model rats; [4]): 44%
- bone erosion index reduction (CIA model rats; [4]): 38%
- cartilage degradation index reduction (CIA model rats; [4]): 37%
- synovitis index reduction (CIA model rats; [4]): 37%
- Tmax [1]: 1 to 2 h
- BTK phosphorylation, Log2Ratio Stim/Control (CD8+ Memory (CD3+CD28)): 1.34
- CrL phosphorylation, Log2Ratio Stim/Control (CD8+ Memory (CD3+CD28)): 1.59
- HS1 phosphorylation, Log2Ratio Stim/Control (CD8+ Memory (CD3+CD28)): 0.56
- LCK phosphorylation, Log2Ratio Stim/Control (CD8+ Memory (CD3+CD28)): 1.52
- PLCγ2 phosphorylation, Log2Ratio Stim/Control (CD8+ Memory (CD3+CD28)): 2.55
- RPS6KA1 phosphorylation, Log2Ratio Stim/Control (CD8+ Memory (CD3+CD28)): 0.47
- SRC phosphorylation, Log2Ratio Stim/Control (CD8+ Memory (CD3+CD28)): 0.80
- WIPF1 phosphorylation, Log2Ratio Stim/Control (CD8+ Memory (CD3+CD28)): 0.82
- ZAP70 phosphorylation, Log2Ratio Stim/Control (CD8+ Memory (CD3+CD28)): 1.33
- BTK phosphorylation, Log2Ratio Stim/Control (CD4+ Memory (CD3+CD28)): 1.21
- CD247 phosphorylation, Log2Ratio Stim/Control (CD4+ Memory (CD3+CD28)): 2.86
- CrkL phosphorylation, Log2Ratio Stim/Control (CD4+ Memory (CD3+CD28)): 1.63
- LCK phosphorylation, Log2Ratio Stim/Control (CD4+ Memory (CD3+CD28)): 1.51
- PLCγ2 phosphorylation, Log2Ratio Stim/Control (CD4+ Memory (CD3+CD28)): 2.43
- PTK2B phosphorylation, Log2Ratio Stim/Control (CD4+ Memory (CD3+CD28)): 0.93
- SLP76 phosphorylation, Log2Ratio Stim/Control (CD4+ Memory (CD3+CD28)): 1.63
- Src phosphorylation, Log2Ratio Stim/Control (CD4+ Memory (CD3+CD28)): 0.82
- ZAP70 phosphorylation, Log2Ratio Stim/Control (CD4+ Memory (CD3+CD28)): 1.22
- AKT1 phosphorylation, Log2Ratio Stim/Control (NK cells (LPS)): 0.44
- Akt phosphorylation, Log2Ratio Stim/Control (NK cells (LPS)): 0.54
- BTK phosphorylation, Log2Ratio Stim/Control (NK cells (LPS)): -0.04
- GSK3B phosphorylation, Log2Ratio Stim/Control (NK cells (LPS)): 0.91
- MAP2K1 phosphorylation, Log2Ratio Stim/Control (NK cells (LPS)): 0.51
- MNK phosphorylation, Log2Ratio Stim/Control (NK cells (LPS)): 0.07
- P38 phosphorylation, Log2Ratio Stim/Control (NK cells (LPS)): 0.36
- RPS6 phosphorylation, Log2Ratio Stim/Control (NK cells (LPS)): 0.30
- SMAD2 phosphorylation, Log2Ratio Stim/Control (NK cells (LPS); first SMAD2 line): 0.67
- SMAD2 phosphorylation, Log2Ratio Stim/Control (NK cells (LPS); second SMAD2 line): 0.07
- 4ebp1 phosphorylation, Log2Ratio Stim/Control (Neutrophils (LPS)): 0.28
- AKT1 phosphorylation, Log2Ratio Stim/Control (Neutrophils (LPS)): 0.66
- AMPK phosphorylation, Log2Ratio Stim/Control (Neutrophils (LPS)): 0.29
- Akt phosphorylation, Log2Ratio Stim/Control (Neutrophils (LPS)): 0.66
- BTK phosphorylation, Log2Ratio Stim/Control (Neutrophils (LPS)): -0.25
- HSP27 phosphorylation, Log2Ratio Stim/Control (Neutrophils (LPS)): 0.34
- MAP2K1 phosphorylation, Log2Ratio Stim/Control (Neutrophils (LPS)): 2.38
- MNK phosphorylation, Log2Ratio Stim/Control (Neutrophils (LPS)): 0.40
- RPS6 phosphorylation, Log2Ratio Stim/Control (Neutrophils (LPS)): 0.66
- IC50 (BTK [2]): 160 nM
- IC50 (BTK [3]): 4 nM
